Experiments:
Test in all cases: Inhibitory effect on growth of human cancer cells (in vitro), WST-8
Type in all cases: cell-based
[1] = test system: human colorectal cancer HT-29 cells; settings: Homo sapiens, HT-29, 96 h, 96 hours culture, read-out: IC50 (nM) HT29
Experimental: (§1) Each pyrrole compound of the present invention was studied for its effects on the growth of human non-small cell lung cancer A549 cells and human colorectal cancer HT-29 cells and HCT116 cells. The cells of each line were suspended in an RPMI1640 medium supplemented with 10% fetal bovine serum and inoculated at a cell density of 1000 cells/50 μL/well to a 96-well plate. After overnight culture, each compound diluted with a medium was added thereto at a concentration of 50 μL/well, and the cells were further cultured for 96 hours. After the completion of culture, WST-8 (Seikagaku Corp.) was added thereto at a concentration of 10 μL/well, and the cells were cultured at 37° C. for approximately 1 hour under 5% CO2 conditions, followed by measurement of absorbance at 450 nm.

[2] = test system: human non-small cell lung cancer A549 cells; settings: Homo sapiens, A549, 96 h, 96 hours culture
Experimental: as §1

[3] = test system: human colorectal cancer HCT116 cells; settings: Homo sapiens, HCT-116, 96 h, 96 hours culture
Experimental: as §1

Row | Structure (SMILES) | IC50 [1] [nM] | IC50 [2] [nM] | IC50 [3] [nM]
1 | CCc1nnc(-c2c(C)c(C(=O)c3cccc(Br)c3)c(C)n2C)o1 [Compound 223, (3-bromophenyl) (5-(5-ethyl-1,3,4-oxadiazol-2-yl)-1,2,4-trimethyl-1H-pyrrol-3-yl)methanone] | 28.1 | 231 | 46.9
2 | CCc1nnc(-c2c(C)c(C(=O)c3cccc(Br)c3)c(C)n2C(C)=O)o1 [Compound 224, 1-(3-(3-bromobenzoyl)-5-(5-ethyl-1,3,4-oxadiazol-2-yl)-2,4-dimethyl-1H-pyrrol-1-yl)ethanone] | 1.3 | 1.8 | 1.7
3 | CCc1nnc(-c2c(C)c(C(=O)c3cccc(Br)c3)c(C)n2S(C)(=O)=O)o1 [Compound 225, (3-bromophenyl)(5-(5-ethyl-1,3,4-oxadiazol-2-yl)-2,4-dimethyl-1-(methylsulfonyl)-1H-pyrrol-3-yl)methanone] | 6.6 | 9.7 | 9.2
4 | CCc1nnc(-c2c(C)c(C(=O)c3cccc(Br)c3)c(C)n2C(=O)COC(C)=O)o1 [Compound 226, 2-(3-(3-bromobenzoyl)-5-(5-ethyl-1,3,4-oxadiazol-2-yl)-2,4-dimethyl-1H-pyrrol-1-yl)-2-oxoethyl acetate] | 0.3 | 0.7 | 0.4
5 | CCc1nnc(-c2c(C)c(C(=O)c3cccc(Br)c3)c(C)n2S(=O)(=O)C2CC2)o1 [Compound 227, (3-bromophenyl) (1-(cyclopropylsulfonyl)-5-(5-ethyl-1,3,4-oxadiazol-2-yl)-2,4-dimethyl-1H-pyrrol-3-yl)methanone] | 290 | 555 | 447
6 | CCc1nnc(-c2c(C)c(C(=O)c3cccc(Br)c3)c(C)n2CCOC(C)=O)o1 [Compound 235, 2-(3-(3-bromobenzoyl)-2,4-dimethyl-5-(5-ethyl-1,3,4-oxadiazol-2-yl)-1H-pyrrol-1-yl)ethyl acetate] | 172 | 738 | 239
7 | CCc1nnc(-c2c(C)c(C(=O)c3cccc(Br)c3)c(C)n2CCO)o1 [Compound 236, (3-bromophenyl) (1-(2-hydroxyethyl)-2,4-dimethyl-5-(5-ethyl-1,3,4-oxadiazol-2-yl)-1H-pyrrol-3-yl)methanone] | 168 | 469 | 231
8 | CCc1nnc(-c2c(C)c(C(=O)c3cccc(Br)c3)c(C)n2C(=O)c2ccccc2)o1 [Compound 237, (1-benzoyl-5-(5-ethyl-1,3,4-oxadiazol-2-yl)-2,4-dimethyl-1H-pyrrol-3-yl) (3-bromophenyl)methanone] | 0.3 | 1.9 | 0.6
9 | Cc1[nH]c(-c2nnc(C3CC3)o2)c(C)c1C(=O)c1cc(Br)ccc1O [Compound 241, (5-bromo-2-hydroxyphenyl)(5-(5-cyclopropyl-1,3,4-oxadiazol-2-yl)-2,4-dimethyl-1H-pyrrol-3-yl)methanone] | 2.6 | 2.1 | 1.4
10 | CCc1nnc(-c2[nH]c(C)c(C(=O)c3ccc(OCCN)c(Br)c3)c2C)o1 [Compound 251, (4-(2-aminoethoxy)-3-bromophenyl)(5-(5-ethyl-1,3,4-oxadiazol-2-yl)-2,4-dimethyl-1H-pyrrol-3-yl)methanone] | 102 | 191 | 55.3
11 | Cc1[nH]c(-c2nnc(C3CC3)o2)c(C)c1C(=O)c1cccc(OCCN)c1 [Compound 253, (3-(2-aminoethoxy)phenyl)(5-(5-cyclopropyl-1,3,4-oxadiazol-2-yl)-2,4-dimethyl-1H-pyrrol-3-yl)methanone] | 146 | 351 | 45.2
12 | Cc1[nH]c(-c2nnc(C3CC3)o2)c(C)c1C(=O)c1ccc(O)c(Br)c1 [Compound 254, (3-bromo-4-hydroxyphenyl)(5-(5-cyclopropyl-1,3,4-oxadiazol-2-yl)-2,4-dimethyl-1H-pyrrol-3-yl)methanone] | 33.2 | 55.1 | 44.5
13 | Cc1[nH]c(-c2nnc(C3CC3)o2)c(C)c1C(=O)c1ccc(OCCN)c(Br)c1 [Compound 256, (4-(2-aminoethoxy)-3-bromophenyl)(5-(5-cyclopropyl-1,3,4-oxadiazol-2-yl)-2,4-dimethyl-1H-pyrrol-3-yl)methanone] | 36.2 | 95.9 | 43.2
14 | Cc1[nH]c(-c2nnc(C3CC3)o2)c(C)c1C(=O)c1ccc(OCCN(C)C)c(Br)c1 [Compound 257, (3-bromo-4-(2-(dimethylamino)ethoxy)phenyl) (5-(5-cyclopropyl-1,3,4-oxadiazol-2-yl)-2,4-dimethyl-1H-pyrrol-3-yl)methanone] | 384 | 865 | 865
15 | COc1ccc(Br)cc1C(=O)c1c(C=O)[nH]c(-c2nnc(C3CC3)o2)c1C [Compound 258, 3-(5-bromo-2-methoxybenzoyl)-5-(5-cyclopropyl-1,3,4-oxadiazol-2-yl)-4-methyl-1H-pyrrole-2-carboaldehyde] | 30.9 | 50.5 | 45.4
16 | COc1ccc(Br)cc1C(=O)c1c(CO)[nH]c(-c2nnc(C3CC3)o2)c1C [Compound 259, (5-bromo-2-methoxyphenyl)(5-(5-cyclopropyl-1,3,4-oxadiazol-2-yl)-2-(hydroxymethyl)-4-methyl-1H-pyrrol-3-yl)methanone] | 37.2 | 69.5 | 39.2
17 | C=Cc1[nH]c(-c2nnc(C3CC3)o2)c(C)c1C(=O)c1cccc(Br)c1 [Compound 260, (3-bromophenyl) (5-(5-cyclopropyl-1,3,4-oxadiazol-2-yl)-4-methyl-2-vinyl-1H-pyrrol-3-yl)methanone] | 0.3 | 0.4 | 0.3
18 | Cc1c(-c2nnc(C3CC3)o2)[nH]c(C=O)c1C(=O)c1cccc(Br)c1 [Compound 261, 3-(3-bromobenzoyl)-5-(5-cyclopropyl-1,3,4-oxadiazol-2-yl)-4-methyl-1H-pyrrole-2-carboaldehyde] | 9.4 | 12.9 | 88.9
19 | COc1ccc(C(=O)c2c(C3SCCCS3)[nH]c(-c3nnc(C4CC4)o3)c2C)cc1Br [Compound 262, (3-bromo-4-methoxyphenyl)(5-(5-cyclopropyl-1,3,4-oxadiazol-2-yl)-2-(1,3-dithian-2-yl)-4-methyl-1H-pyrrol-3-yl)methanone] | 845 | 905 | 902
20 | Cc1c(-c2nnc(C3CC3)o2)[nH]c(CO)c1C(=O)c1cccc(Br)c1 [Compound 264, (3-bromophenyl)(5-(5-cyclopropyl-1,3,4-oxadiazol-2-yl)-2-(hydroxymethyl)-4-methyl-1H-pyrrol-3-yl)methanone] | 1.8 | 8.2 | 1.8
21 | Cc1c(-c2nnc(C3CC3)o2)[nH]c(C(F)F)c1C(=O)c1cccc(Br)c1 [Compound 265, (3-bromophenyl)(5-(5-cyclopropyl-1,3,4-oxadiazol-2-yl)-2-(difluoromethyl)-4-methyl-1H-pyrrol-3-yl)methanone] | 37.1 | 46 | 158
22 | COc1ccc(C(=O)c2c(CN3CCCCC3)[nH]c(-c3nnc(C4CC4)o3)c2C)cc1Br [Compound 270, (3-bromo-4-methoxyphenyl)(5-(5-cyclopropyl-1,3,4-oxadiazol-2-yl)-4-methyl-2-(piperidin-1-ylmethyl)-1H-pyrrol-3-yl)methanone] | 725 | 859 | 819
23 | Cc1noc(-c2[nH]c(C)c(C(=O)c3cccc(Br)c3)c2C)n1 [Compound 271, (3-bromophenyl) (2,4-dimethyl-5-(3-methyl-1,2,4-oxadiazol-5-yl)-1H-pyrrol-3-yl)methanone] | 44.1 | 92.9 | 50.4
24 | CCc1cnc(-c2[nH]c(C)c(C(=O)c3cccc(Br)c3)c2C)o1 [Compound 272, (3-bromophenyl) (5-(5-ethyloxazol-2-yl)-2,4-dimethyl-1H-pyrrol-3-yl)methanone] | 42 | 66.6 | 48.4
25 | Cc1c(-c2nnn(CCN)n2)[nH]c(CO)c1C(=O)c1cccc(Br)c1 [Compound 280, (5-(2-(2-aminoethyl)-2H-tetrazol-5-yl)-2-(hydroxymethyl)-4-methyl-1H-pyrrol-3-yl) (3-bromophenyl)methanone] | 194 | 250 | 250
26 | CNC(=O)c1[nH]c(-c2nnn(CCN)n2)c(C)c1C(=O)c1cccc(Br)c1 [Compound 282, 5-(2-(2-aminoethyl)-2H-tetrazol-5-yl)-3-(3-bromobenzoyl)-N,4-dimethyl-1H-pyrrole-2-carboxamide] | 315 | 525 | 754
27 | Cc1c(-c2nnn(CCO)n2)[nH]c(C(C)(C)O)c1C(=O)c1cccc(Br)c1 [Compound 285, (3-bromophenyl)(5-(2-(2-hydroxyethyl)-2H-tetrazol-5-yl)-2-(2-hydroxypropan-2-yl)-4-methyl-1H-pyrrol-3-yl)methanone] | 598 | 595 | 246
28 | Cc1[nH]c(-c2nnn(CCO)n2)c(Br)c1C(=O)c1cccc(Br)c1 [Compound 288, (4-bromo-5-(2-(2-hydroxyethyl)-2H-tetrazol-5-yl)-2-methyl-1H-pyrrol-3-yl)(3-bromophenyl)methanone] | 6.7 | 8.2 | 7.1
